Values quoted from earlier work in US20230398069A1, “ETOPOSIDE TONIRIBATE FORMULATION” (CELLACT PHARMA GMBH, priority 2020, published 2023).

Details: API

solubility in water: poorly soluble in water | stability at acidic and basic pH: unstable at acidic and basic pH
SMILES: COc1cc([C@@H]2c3cc4c(cc3[C@@H](O[C@@H]3O[C@@H]5CO[C@@H](C)O[C@H]5[C@@H](O)[C@H]3O)[C@H]3COC(=O)[C@H]23)OCO4)cc(OC)c1OC(=O)OCC1COC(C)(C)O1 (some centres unmarked) [Etoposide toniribate]
